Source: PMC7356970, “A Population Pharmacokinetic and Pharmacodynamic Model of CKD-519” (Pharmaceutics, 2020)
Values after ≈ are worked out from the molar mass of the structure shown.

What was measured:
[1] = biological target: T1, Plasma CETP activity (Homo sapiens, UniProt P11597); assay: population CETP model (turnover model), plasma CETP activity by fluorescent assay; format: in vivo
T1 construct: from tissue; host or cells: plasma of healthy subjects (sodium heparin tubes)
T1 sequence (P11597 18-493): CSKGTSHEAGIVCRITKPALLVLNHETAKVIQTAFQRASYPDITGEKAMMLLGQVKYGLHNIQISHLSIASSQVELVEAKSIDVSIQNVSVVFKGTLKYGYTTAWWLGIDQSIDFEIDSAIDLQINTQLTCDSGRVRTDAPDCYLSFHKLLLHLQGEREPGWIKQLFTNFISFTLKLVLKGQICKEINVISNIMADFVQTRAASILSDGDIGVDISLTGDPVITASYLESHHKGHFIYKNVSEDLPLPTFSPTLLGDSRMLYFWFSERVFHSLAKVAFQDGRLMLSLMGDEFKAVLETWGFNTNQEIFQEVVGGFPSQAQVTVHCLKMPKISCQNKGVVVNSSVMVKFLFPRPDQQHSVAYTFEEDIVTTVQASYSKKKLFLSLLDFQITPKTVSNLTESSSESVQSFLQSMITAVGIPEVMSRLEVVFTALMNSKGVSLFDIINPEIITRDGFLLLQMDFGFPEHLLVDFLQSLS
Method: (§1) Blood samples for PK or PD were collected on days 1 (0, 1, 2, 3, 4, 5, 6, 7, 8, 10, 12, 18, and 24 h) and 14 (0, 1, 2, 3, 4, 5, 6, 7, 8, 10, 12, 18, 24, 32, 48, 72, 96, 120, 144, and 168 h), along with daily sampling on days 2 through 13 to determine trough levels of drug concentration, CETP activity, and lipid values. Each blood sample for PK and CETP activity was collected in sodium heparin tubes and then centrifuged at 1900 g for 10 min. Their aliquots were stored at or below […] until analysis. The plasma concentrations of CKD-519 were measured using a validated high-performance liquid chromatography-tandem mass spectrometry assay. A 100 μL plasma sample was mixed with 10 μL internal standard working solution and 300 μL acetonitrile. After centrifugation, 3 μL supernatant was injected into the column. The lower limit of quantification was 1.0 ng/mL. The calibration curve was linear over the concentration range of 1.0–2000 ng/mL. The precision of the assay was less than 2.7% coefficient of variation, and the accuracy of the assay was within the range of 93.7–113.0% [5]. Plasma CETP activity was measured by using a fluorescent assay method previously described. HDL-C and LDL-C were measured with an ADIVA 1650 Clinical Chemistry System (Siemens Medical Solutions, Tarrytown, NY, USA).
Since CETP inhibition is closely related to HDL-C increase and LDL-C decrease, the CETP model was included as a link between the PK model of CKD-519 and cholesterol (HDL-C and LDL-C) models. For the CETP model, CETP activity was used as a dependent variable as this was the primary parameter of interest.
The turnover model was used to describe the relationship between CETP activity and plasma concentration of CKD-519. The effect of CKD-519 was applied in the model as stimulating the elimination of CETP activity. Because the CETP activity increased over time in the placebo group, the response of placebo treatment was incorporated into the CETP model. The effects of CKD-519 and placebo treatment were evaluated as linear, Emax, or sigmoid Emax relationships. […]

[2] = design: method as in PMID 30107219, PMID 27895466; conditions: at pH 7.4; cited from earlier work
[3] = test system: serum CETP concentration; assay: serum CETP concentration during multiple dosing; format: in vivo, human; conditions: time-dependent, in house data
Description: As reported earlier in other CETP inhibitors, the administration of CKD-519 in this study led to an approximately 2.5 fold increase in serum CETP concentration in a time-dependent manner (in house data). In the placebo group, serum CETP concentration increased by about 30% after two weeks (in house data). It has been reported that transcription of the CETP gene is under the control of extrinsic and intrinsic factors. Dietary cholesterol up-regulates CETP expression in human CETP-transgenic mice, and plasma cholesterol levels also correlate with CETP mass in humans. The increase in CETP activity in the placebo group might be due to increased serum CETP mass because dietary cholesterol regularly served during hospitalization for three weeks could have promoted CETP expression. […] Linear, Emax, and sigmoid Emax models were tested to explain CETP activity increase in the placebo group, and the Emax model by time best described the placebo effect.

[4] = test system: LDL-C; assay: population LDL-C model (turnover, sigmoid Emax); format: in vivo, human
Method: as §1
(§2) For each of the HDL-C and LDL-C model development, their clinical laboratory results were used. Their responses by changing CETP activity were described using turnover models. Taking into account the physiological mechanism of CETP on lipid metabolism, the CETP effect was incorporated into the model as a stimulatory function of HDL-C elimination and an inhibitory function of LDL-C elimination. The effect of CETP activity on HDL-C or LDL-C was evaluated using linear, Emax, or sigmoid Emax models.
(§3) HDL-C and LDL-C models were best described with the sigmoid Emax function. The LDL-C in the placebo group tended to increase gradually over time. Thus, a linear model was used to describe the placebo effect on LDL-C after comparison with Emax and sigmoid Emax models. The changes in HDL-C and LDL-C concentration were described as follows:(7) dHDL/dt=Ksyn−Kdeg×AHDL×(1+RESCETP) (8) dLDL/dt=Ksy×(1+PLA)−Kdeg×ALDL×(1−RESCETP) (9) RESCETP=CETPactivityγ×Rmax/CETPactivityγ+R50γ (10) PLA=β×time where Ksyn and Ksy are the zero-order production rate constant, Kdeg is the first-order elimination rate constant, RESCETP is the change in CETP activity, Rmax is the maximal effect of CETP activity on HDL-C and LDL-C response, R50 is the CETP activity required to attain 50% maximal response of HDL-C and LDL-C, PLA is the placebo effect, and β is the proportionality constant.

[5] = cited from earlier work
[6] = biological target: T2, CETP activity (Homo sapiens, UniProt P11597); assay: food effect on inhibition of CETP activity, single 200 mg; format: in vivo
T2 construct: from tissue; host or cells: plasma of healthy subjects (sodium heparin tubes)
T2 sequence (P11597 18-493): T1 sequence (P11597 18-493)
Description: (§4) The exposure of CKD-519 increased with the dose. However, maximum plasma concentration (Cmax) and area under the plasma concentration-time curve (AUC) normalized by dose decreased with each incremental dose.

[7] = biological target: T2, CETP activity; design: method as in PMID 27895466; conditions: healthy subjects, cited from earlier work
[8] = food effect on PK, single 200 mg, standard meal vs fasted; format: in vivo, human; conditions: single 200 mg with a standard meal; in house data
Description: as §4

[9] = multiple-dose study in healthy male subjects, plasma PK and population PK model; format: in vivo, human; conditions: for CL/F: observed
Method: A randomized, double-blinded, placebo-controlled, multiple-dose, and dose-escalation study was conducted in a total of 32 healthy male subjects aged 19–55 years in four cohorts (50, 100, 200, and 400 mg). Six subjects were assigned to CKD-519, and two to matching placebo in each cohort. Dose escalation to the next cohort was done after the safety profile was reviewed. CKD-519 was available as two dosage forms of 50 and 100 mg tablets.
Enrolled subjects were admitted on day −1. CKD-519 or placebo was administered to randomly assigned subjects for 14 days with a standard breakfast meal (700–800 kcal, containing 5–25% fat content). All subjects were hospitalized until completion of blood sampling for PK and PD (from day −1 to day 21). All meals were nutritionally equivalent and provided at the same time scheduled throughout the study period. The participants were not permitted to take any drugs or herbal medications and also were restricted from consuming any other snacks or beverages during the study.
as §1
PK and PD models were developed using NONMEM version 7.3 (Icon Development Solutions, Ellicott City, MD, USA) using a first-order conditional estimation with interaction method (FOCE-INTER). R (version 3.6.1, R Foundation for Statistical Computing, Vienna, Austria) was used for data preparation, graphical analysis, and model diagnostics. The population PK-PD model was developed sequentially. The PK model was initially developed, and then the CETP model (PK-PD) was developed using individual PK parameters estimated from the final PK model. Finally, the cholesterol (HDL-C or LDL-C) models were developed using the individual CETP parameters estimated from the final CETP model.
Inter-individual variability (IIV) for each parameter in all models was assumed to follow a Gaussian distribution with a mean of 0 and variance of ω^2. For the PK model, once the IIV term was selected, the covariance between the terms was assessed using an omega block on selected parameters. As for the residual error, additive, proportional, and combined models were tested. The model was selected after a comparison of several criteria such as a decrease in the objective function value (OFV), completion of the estimation and covariance routines, the precision of the parameter and error estimates, and visual exploration of the diagnostic plots.
Several disposition models were assessed, including 1-, 2-, and 3- compartment structural models. Absorption was evaluated with first-order, zero-order (with and without lag time), Weibull-type, and Erlang’s model. The bioavailability was assessed about the effects of the dose and time. […]

[10] = test system: HDL-C; assay: population HDL-C model (turnover, sigmoid Emax); format: in vivo, human
Method: as §1, §2, §3

[11] = final population PK model estimate

In the case of COc1cc(F)c(C(C)C)cc1C1=C(CN2C(=O)O[C@H](c3cc(C(F)(F)F)cc(C(F)(F)F)c3)[C@@H]2C)CC(C)(C)CC1 [CKD-519], the “EC50, plasma drug concentration of half-maximal effect on CETP activity” value ([1]; CETP model estimate) is reported as 0.587 µg/mL, the “Emax, maximal effect of plasma drug concentration on CETP activity” value ([1]; CETP model estimate, stimulation of Kout) is reported as 18.2 and the “ωEmax, interindividual variability on Emax” value ([1]; CV%) is reported as 39.5%. For the same compound, the LogP [2] was > 5.0, the “increase in serum CETP concentration” value [3] was “approximately 2.5 fold” and the “ωGAM, interindividual variability on γ” value ([4]; CV%, LDL-C model) was 50.9%. For the same compound, the “R50, CETP activity of half-maximal effect on LDL-C response” value ([4]; LDL-C model estimate) was 80.7 pmol, the “Rmax, maximal effect of CETP activity on LDL-C response” value ([4]; LDL-C model estimate) was 0.8 and the “γ, steepness of the CETP activity versus LDL-C relationship” value ([4]; LDL-C model estimate) was 2.2. The “maximal decrease in LDL-C” value ([4]; estimated) was 47–66%, the aqueous solubility [5] was “less than 1.0 μg/mL” and the “solubility in deionized water” value ([5]; in vitro solubility test) was “insoluble”. The “solubility in ethyl alcohol” value ([5]; in vitro solubility test) was “freely soluble”, the “inhibitory effect of CETP activity” value ([6]; fasted group) was 81.5% and the “inhibitory effect of CETP activity” value ([6]; fed group) was 91.4%. For the same compound, the “maximum inhibitory effect of CETP activity” value ([7]; single administration 25–400 mg) was 63–83%, the “EC50 (CETP activity)” value ([7]; single administration) was 0.0173 µg/mL (≈ 0.0288 µM) and the “increase in AUC relative to the fasted state” value [8] was 5.8 fold. For the same compound, the “increase in Cmax relative to the fasted state” value [8] was 8.7 fold, the “increase of CL/F from 50 mg to 200 mg” value ([9]; 50 mg vs 200 mg) was “approximately 2.5 fold” and the “increase of AUC after multiple administration compared to the first dose” value ([9]; 400 mg group) was “three-fold increase”. For the same compound, the “α1, proportionality constant for fraction of first-order absorption process depending on time” value ([9]; 50, 100 and 200 mg dose groups) was 0.002, the “ωBmax, interindividual variability on BMAX” value ([9]; CV%) was 28.2% and the “ωCL/F, interindividual variability on CL/F” value ([9]; CV%) was 15.6%. For the same compound, the “ωKtr, interindividual variability on Ktr” value ([9]; CV%) was 14.1%, the “ωV3/F, interindividual variability on V3/F” value ([9]; CV%) was 58.1% and the Tmax ([9]; all dose groups) was “approximately 1 h”. The “Ka, absorption rate constant” value [9, 11] was 1.09 h⁻¹, the “V2/F, volume of peripheral compartment 1” value [9, 11] was 45.4 L and the “V3/F, volume of peripheral compartment 2” value [9, 11] was 1006.0 L. For the same compound, the “V/F, volume of central compartment” value [9, 11] was 11.4 L, the “CL/F, clearance” value ([9]; final population PK model estimate, 50–400 mg daily for 14 days with standard meal) was 6.4 L/h and the “Ktr, transit rate constant” value ([9]; final population PK model estimate, Erlang's absorption, five transit compartments) was 1.10 h⁻¹. For the same compound, the CL/F ([9]; 50 mg) was 11.98 L/h, the CL/F ([9]; 200 mg) was 30.04 L/h and the CL/F ([9]; 400 mg) was 23.98 L/h. The half-life ([9]; terminal, across dose groups) was 145.4 to 166.2 h, the “R50, CETP activity of half-maximal effect on HDL-C response” value ([10]; HDL-C model estimate) was 185.0 pmol and the “Rmax, maximal effect of CETP activity on HDL-C response” value ([10]; HDL-C model estimate) was 1.5. For the same compound, the “γ, steepness of the CETP activity versus HDL-C relationship” value ([10]; HDL-C model estimate) was 2.1 and the “maximal increase in HDL-C” value ([10]; estimated) was 160–190%.
